From US20250197372A1 (priority 2020, published 2025)
Read-outs that look alike come from different tables or passages of the source.

Columns and labels:
Format in all cases: biochemical
[1] = biological target: T1, recombinant alpha-glucosidase I (human full-length glucosidase I, Glu 1) (Homo sapiens, UniProt Q13724); experiment: Alpha-glucosidase I assay (Amplex Red glucose detection, synthetic trisaccharide substrate)
T1 construct: 6-His (C); made in house; host or cells: HEK-293T cells transduced with BacMam virus (virus raised in Sf9)
T1 sequence (Q13724 1-837): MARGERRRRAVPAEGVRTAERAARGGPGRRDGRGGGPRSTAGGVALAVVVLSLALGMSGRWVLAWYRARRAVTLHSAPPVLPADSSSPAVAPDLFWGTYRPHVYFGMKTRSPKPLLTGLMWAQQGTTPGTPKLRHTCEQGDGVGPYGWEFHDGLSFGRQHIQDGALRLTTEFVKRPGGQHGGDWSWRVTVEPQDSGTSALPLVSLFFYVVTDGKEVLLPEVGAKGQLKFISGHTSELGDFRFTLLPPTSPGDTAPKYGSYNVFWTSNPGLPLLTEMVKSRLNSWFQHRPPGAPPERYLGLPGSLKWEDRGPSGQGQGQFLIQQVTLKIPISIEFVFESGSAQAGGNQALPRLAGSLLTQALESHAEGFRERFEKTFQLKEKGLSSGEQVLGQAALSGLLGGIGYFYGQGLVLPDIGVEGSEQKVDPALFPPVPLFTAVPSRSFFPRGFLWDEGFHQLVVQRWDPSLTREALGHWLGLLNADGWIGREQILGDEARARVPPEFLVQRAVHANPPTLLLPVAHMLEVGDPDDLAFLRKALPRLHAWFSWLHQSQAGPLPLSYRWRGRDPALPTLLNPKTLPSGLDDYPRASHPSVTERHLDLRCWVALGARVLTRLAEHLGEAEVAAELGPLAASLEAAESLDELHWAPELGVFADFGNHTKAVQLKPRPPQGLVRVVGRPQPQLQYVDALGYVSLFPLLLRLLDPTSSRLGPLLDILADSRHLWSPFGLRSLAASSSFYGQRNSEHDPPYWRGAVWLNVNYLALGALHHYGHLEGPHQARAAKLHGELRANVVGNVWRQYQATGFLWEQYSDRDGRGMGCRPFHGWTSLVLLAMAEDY
Description: Preparation of Human Full-length Glucosidase I: The amino acid sequence for human full-length glucosidase I was obtained from UniProt (Q13724). […] The entry vector was cloned into Kemp Proteins' BacMam Destination vector and transformed into chemically competent DH10Bac E. coli cells to produce recombinant glucosidase I bacmids. Bacmid isolates were obtained following two rounds of blue-white screening and they were transfected into Sf9 cells cultivated in serum-free medium (Thermo Fisher Scientific). Four days post-transfection the culture supernatants containing virus were harvested and filter sterilized. […] A multiplicity of infection (MOI, ratio of virus to cells) of 4 was selected. Soluble glucosidase I was detected by anti-His western blots in the soluble cell extract following extraction with 1% V/V NP40 for 30 minutes at 0° C. Productions and purifications of glucosidase I were carried out at scales ranging from 1-liter to 10-liters. […] In another example production at the 10-liter scale was performed in stirred-tank bioreactors at 27° C. and 80 rpm with dissolved oxygen level at 50% of oxygen in air and pH between 7.0 and 7.2. Cells were transduced at MOI of 4 and the cell pellet was harvested at 48 hours post-transduction using centrifugation.
The pellet from a 10-liter culture was lysed by resuspending the pellet into 1-liter of 50 mM NaH2PO4—H2O+300 mM NaCl+10 mM Imidazole+1 mM PMSF+1% V/V NP40 pH 8. The suspension was incubated on ice for 30 minutes and clarified at 500×g and 4° C. The supernatant was collected and clarified at 20,000×g for 30 minutes at 4° C. and the supernatant was collected and filtered through a 0.2 micron filter. […] The column was washed with 20 column volumes (CV) of 50 mM NaH2PO4-H2O+300 mM NaCl+10 mM Imidazole pH 8 and eluted using a linear gradient of 0-60% 50 mM NaH2PO4-H2O+300 mM NaCl+500 mM Imidazole pH 8 over 90 minutes. at 5 mL per minute. Fractions (25 mL) were collected and analyzed by SDS PAGE and Western Blot (reducing anti-His). Fractions containing purified glucosidase I were pooled and dialyzed into storage buffer (20 mM Tris+300 mM NaCl+50 mM L-arginine+10 mM EDTA+0.01% V/V Tween 80 pH 7.5). The final material was filter sterilized and stored at 4° C. and the working dilution confirmed by a use-test in the indicated assay conditions prior to use.
Alpha-glucosidase I Assay: The assay was performed by incubating recombinant alpha-glucosidase I enzyme with multiple dilutions of test compounds for 60 minutes at 37° C. A synthetic trisaccharide substrate analog was then introduced to the mixture for 90 minutes at 37° C. The reaction was then stopped with 1.5M Tris (pH 8). In the absence of inhibition, the terminal glucose of the substrate was hydrolyzed by the enzyme. The D-glucose product was detected using Amplex Red Glucose/Glucose Oxidase Assay Kit (Invitrogen) following the manufacturer's directions where glucose oxidase reacts with D-glucose to form D-gluconolactone and H2O2 which then reacts with the Amplex Red reagent to generate a red-fluorescent oxidation product (560 nm, excitation; 590 nm, emission). […] Percent inhibition is plotted as a function of concentration for each compound, compared to control reactions. The IC50 was determined using a 4-PL curve fit and serves as a measure of relative inhibitory activity of each test compound (see Table 3).

[2] = biological target: recombinant human GAA (acid alpha-glucosidase) (Homo sapiens, UniProt P10253); experiment: Acid alpha-glucosidase (GAA) assay (4-methylumbelliferyl-alpha-D-pyranoside substrate, fluorescence)
Procedure: Acid alpha-glucosidase (GAA): To analyze inhibitory effects of a test compound, commercially available recombinant human GAA was incubated with multiple dilutions of test compound for 60 minutes at 37° C. 4-methylumbelliferyl-alpha-D-pyranoside was then introduced to the mixture as the substrate. 1,4-methyllumbelliferone is generated, and after an incubation for 20 minutes at 37° C., the reaction was stopped with the stop solution (0.5M glycine 0.3M NaOH pH 10). 1,4-methyllumbelliferone is detected by fluorescence (excitation at 365 nm, emission at 440 nm). Relative fluorescence compared to untreated enzymatic activity and test compound concentration is plotted as a function of percent inhibition. The IC50 is determined using a 4-PL curve fit as the measure of relative inhibitory activity of each test compound (see Table 3).

[3] = biological target: rat maltase (partially purified alpha-glucosidase from intestinal rat powder); experiment: Intestinal alpha-glucosidase assay, maltose substrate (Glucose GO Kit)
Procedure: (§1) Intestinal alpha-glucosidases (rat maltase and sucrase): Intestinal alpha-glucosidases act upon 1,4-alpha-glucoside bonds, breaking down disaccharides to glucose. To perform this assay, partially purified alpha-glucosidase from intestinal rat powder was incubated for 60 minutes at 37° C. with multiple dilutions of test compounds. Maltose or Sucrose respectively was then introduced as substrate to the mixture and incubated for 30 minutes at 37° C. The reaction was stopped by a 5-minute incubation at 90° C. and the resultant glucose production is detected using Sigma's Glucose GO Kit. Percent inhibition was then plotted as a function of concentration for each test compound. The IC50 was determined using a 4-PL curve fit and serves as the measure of relative inhibition of each test compound (see Table 3).

[4] = biological target: rat sucrase (partially purified alpha-glucosidase from intestinal rat powder) (Rattus norvegicus, UniProt P23739); experiment: Intestinal alpha-glucosidase assay, sucrose substrate (Glucose GO Kit)
Procedure: as §1

[5] = Glucosidase 1, read-out: Glu 1 IC50

Chain of rat sucrase (partially purified alpha-glucosidase from intestinal rat powder) (P23739 whole entry): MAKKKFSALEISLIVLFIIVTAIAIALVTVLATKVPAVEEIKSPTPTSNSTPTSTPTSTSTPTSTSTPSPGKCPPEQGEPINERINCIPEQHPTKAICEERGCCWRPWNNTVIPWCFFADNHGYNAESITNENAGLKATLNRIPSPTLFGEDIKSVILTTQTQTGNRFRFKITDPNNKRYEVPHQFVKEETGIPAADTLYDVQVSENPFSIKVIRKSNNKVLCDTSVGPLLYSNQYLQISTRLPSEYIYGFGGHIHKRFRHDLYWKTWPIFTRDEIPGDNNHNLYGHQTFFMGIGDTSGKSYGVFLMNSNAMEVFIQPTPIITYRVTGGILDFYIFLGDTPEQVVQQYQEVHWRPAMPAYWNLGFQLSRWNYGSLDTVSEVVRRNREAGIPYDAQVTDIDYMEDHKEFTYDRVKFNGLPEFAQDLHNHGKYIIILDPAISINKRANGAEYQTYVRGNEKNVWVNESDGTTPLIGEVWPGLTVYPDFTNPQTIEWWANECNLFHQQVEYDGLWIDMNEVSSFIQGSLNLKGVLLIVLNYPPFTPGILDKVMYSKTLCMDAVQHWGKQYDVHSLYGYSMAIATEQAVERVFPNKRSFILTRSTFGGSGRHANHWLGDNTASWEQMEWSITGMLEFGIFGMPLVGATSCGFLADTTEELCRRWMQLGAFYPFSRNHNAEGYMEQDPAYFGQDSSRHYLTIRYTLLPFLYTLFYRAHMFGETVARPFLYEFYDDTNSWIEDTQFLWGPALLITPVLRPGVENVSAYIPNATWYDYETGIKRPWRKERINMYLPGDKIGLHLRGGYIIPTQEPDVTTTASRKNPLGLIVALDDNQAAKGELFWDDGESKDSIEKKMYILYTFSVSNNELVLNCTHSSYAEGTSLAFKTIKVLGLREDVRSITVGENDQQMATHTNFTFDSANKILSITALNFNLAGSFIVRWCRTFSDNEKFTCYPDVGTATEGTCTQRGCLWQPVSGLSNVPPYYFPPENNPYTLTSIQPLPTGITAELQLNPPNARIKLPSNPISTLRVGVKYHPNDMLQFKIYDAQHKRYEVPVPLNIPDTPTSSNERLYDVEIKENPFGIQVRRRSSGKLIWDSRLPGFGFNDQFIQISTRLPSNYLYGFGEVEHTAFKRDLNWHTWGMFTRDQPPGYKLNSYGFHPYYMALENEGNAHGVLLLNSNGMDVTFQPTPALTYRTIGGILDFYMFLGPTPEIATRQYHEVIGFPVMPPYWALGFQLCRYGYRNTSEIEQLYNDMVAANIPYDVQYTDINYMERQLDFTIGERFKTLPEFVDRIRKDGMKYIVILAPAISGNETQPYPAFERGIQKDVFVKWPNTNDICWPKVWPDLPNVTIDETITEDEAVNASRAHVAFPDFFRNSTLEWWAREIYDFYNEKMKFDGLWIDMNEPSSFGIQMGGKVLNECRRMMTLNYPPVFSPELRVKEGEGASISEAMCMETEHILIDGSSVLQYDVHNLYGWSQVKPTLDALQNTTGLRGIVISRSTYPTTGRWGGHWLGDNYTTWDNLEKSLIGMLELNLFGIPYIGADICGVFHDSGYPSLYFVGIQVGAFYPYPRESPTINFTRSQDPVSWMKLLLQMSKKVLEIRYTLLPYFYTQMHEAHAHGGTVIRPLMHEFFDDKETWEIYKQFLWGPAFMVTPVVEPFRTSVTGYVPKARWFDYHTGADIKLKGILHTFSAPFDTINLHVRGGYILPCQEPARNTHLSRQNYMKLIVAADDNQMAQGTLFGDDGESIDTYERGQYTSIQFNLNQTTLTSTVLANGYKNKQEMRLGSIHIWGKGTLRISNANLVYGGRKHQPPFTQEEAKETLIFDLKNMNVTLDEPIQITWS

Row | SMILES | IC50 [1] | IC50 [2] | IC50 [3] | IC50 [4] | IC50 [1, 5]
1 | N#Cc1cc(NCc2cccc(CN3C[C@H](O)[C@@H](O)[C@H](O)[C@H]3CO)c2)cc(C2=COCCO2)c1 [Compound 1044, 3-(5,6-dihydro-1,4-dioxin-2-yl)-5-{[(3-{[(2R,3R,4R,5S)-3,4,5-trihydroxy-2-(hydroxymethyl)piperidin-1-yl]methyl}phenyl)methyl]amino}benzonitrile] | 3 nM | 1420 nM | < 1 nM | < 1 nM | –
2 | Cc1cc(NCc2ccc(CN3C[C@H](O)[C@@H](O)[C@H](O)[C@H]3CO)cc2)cc(-c2cccnn2)c1 [Compound 1052, (2R,3R,4R,5S)-2-(hydroxymethyl)-1-{[4-({[3-methyl-5-(pyridazin-3-yl)phenyl]amino}methyl)phenyl]methyl}piperidine-3,4,5-trio] | 73 nM | 150 nM | 14 nM | 60 nM | –
3 | CS(=O)(=O)c1cc(NCc2ccc(CN3C[C@H](O)[C@@H](O)[C@H](O)[C@H]3CO)cc2)cc(-c2cccnn2)c1 [Compound 1058, (2R,3R,4R,5S)-2-(hydroxymethyl)-1-{[4-({[3-methanesulfonyl-5-(pyridazin-3-yl)phenyl]amino}methyl)phenyl]methyl}piperidine-3,4,5-triol] | 21 nM | 78 nM | 8 nM | 46 nM | –
4 | O=[N+]([O-])c1cc(N2CCOCC2)ccc1NCc1cccc(CN2C[C@H](O)[C@@H](O)[C@H](O)[C@H]2CO)c1 [Compound 1067, (2R,3R,4R,5S)-2-(hydroxymethyl)-1-{[3-({[4-(morpholin-4-yl)-2-nitrophenyl]amino}methyl)phenyl]methyl}piperidine-3,4,5-triol] | 99 nM | 426 nM | 81 nM | 80 nM | –
5 | OC[C@@H]1[C@@H](O)[C@H](O)[C@@H](O)CN1Cc1ccc(CNc2ccc(N3CCOCC3)cc2)cc1 [Compound 1068] | 122 nM | 386 nM | 49 nM | 141 nM | –
6 | OC[C@@H]1[C@@H](O)[C@H](O)[C@@H](O)CN1CCc1ccc(CCNc2cc(Cl)cc(-c3ncon3)c2)cc1 [Compound 1113, (2R,3R,4R,5S)-1-{2-[4-(2-{[3-chloro-5-(1,2,4-oxadiazol-3-yl)phenyl]amino}ethyl)phenyl]ethyl}-2-(hydroxymethyl)piperidine-3,4,5-triol] | 1010 nM | 380 nM | 20 nM | 74 nM | –
7 | CCCc1nc(-c2cc(Cl)cc(NCCc3ccc(CCN4C[C@H](O)[C@@H](O)[C@H](O)[C@H]4CO)cc3)c2)no1 [Compound 1123, (2R,3R,4R,5S)-1-{2-[4-(2-{[3-chloro-5-(5-propyl-1,2,4-oxadiazol-3-yl)phenyl]amino}ethyl)phenyl]ethyl}-2-(hydroxymethyl)piperidine-3,4,5-triol] | – | 700 nM | 440 nM | 2810 nM | 1360 nM
8 | COC(OC)c1cc(NCCCCCCN2C[C@H](O)[C@@H](O)[C@H](O)[C@H]2CO)cc(-c2ncccn2)c1 [Compound 1124, (2R,3R,4R,5S)-1-(6-{[3-(dimethoxymethyl)-5-(pyrimidin-2-yl)phenyl]amino}hexyl)-2-(hydroxymethyl)piperidine-3,4,5-triol] | – | 36 nM | 23 nM | 147 nM | 513 nM
9 | CC(=O)Nc1cc(NCCCCCCN2C[C@H](O)[C@@H](O)[C@H](O)[C@H]2CO)cc(-c2ncccn2)c1 [Compound 1125, N-[3-(pyrimidin-2-yl)-5-({6-[(2R,3R,4R,5S)-3,4,5-trihydroxy-2-(hydroxymethyl)piperidin-1-yl]hexyl}amino)phenyl]acetamide] | – | 80 nM | 15 nM | 92 nM | 337 nM
10 | CN(C)C(=O)c1cc(NCCCCCCN2C[C@H](O)[C@@H](O)[C@H](O)[C@H]2CO)cc(-c2ncccn2)c1 [Compound 1126, N,N-dimethyl-3-(pyrimidin-2-yl)-5-({6-[(2R,3R,4R,5S)-3,4,5-trihydroxy-2-(hydroxymethyl)piperidin-1-yl]hexyl}amino)benzamide] | – | 86 nM | 23 nM | 13500 nM | 550 nM
11 | CS(=O)(=O)c1cc(NCCCCCCN2C[C@H](O)[C@@H](O)[C@H](O)[C@H]2CO)cc(-c2ncccn2)c1 [Compound 1128, (2R,3R,4R,5S)-2-(hydroxymethyl)-1-(6-{[3-methanesulfonyl-5-(pyrimidin-2-yl)phenyl]amino}hexyl)piperidine-3,4,5-triol] | – | 5 nM | < 1 nM | 39 nM | 116 nM
12 | O=Cc1cc(NCCCCCCN2C[C@H](O)[C@@H](O)[C@H](O)[C@H]2CO)cc(-c2ncccn2)c1 [Compound 1129, 3-(pyrimidin-2-yl)-5-({6-[(2R,3R,4R,5S)-3,4,5-trihydroxy-2-(hydroxymethyl)piperidin-1-yl]hexyl}amino)benzaldehyde] | – | 28 nM | 5 nM | 56 nM | 148 nM
13 | N#Cc1cc(NCCCCCCN2C[C@H](O)[C@@H](O)[C@H](O)[C@H]2CO)cc(-c2ncccn2)c1 [Compound 1130, 3-(pyrimidin-2-yl)-5-({6-[(2R,3R,4R,5S)-3,4,5-trihydroxy-2-(hydroxymethyl)piperidin-1-yl]hexyl}amino)benzonitrile] | – | 12 nM | 4 nM | 30 nM | 244 nM
